Experimental data as given in article PMC10353187, “Discovery of a new potent oxindole multi-kinase inhibitor among a series of designed 3-alkenyl-oxindoles with ancillary carbonic anhydrase inhibitory activity as antiproliferative agents” (BMC Chemistry, 2023).

Tests used:
Test in all cases: NCI-60 single-dose antiproliferative assay (SRB)
Type in all cases: cell-based
TK-10 = details: Homo sapiens; 10 μM single dose; TK-10, Renal cancer; read-out: Cell Growth inhibition Percent
In short: (§1)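 Cells grown in RPMI 1640 with 5% FBS and 2 mM L-glutamine were plated, left 24 h at 37 °C, then exposed to compound at a single 10 µM final concentration for 48 h. Adherent cells were TCA-fixed, SRB-stained and read at 515 nm; growth was expressed relative to time-zero and untreated controls.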

SNB-19 = details: Homo sapiens; 10 μM single dose; SNB-19, CNS cancer; read-out: Cell Growth inhibition Percent
In short: as §1

SK-MEL-2 = details: Homo sapiens; 10 μM single dose; SK-MEL-2, Melanoma; read-out: Cell Growth inhibition Percent
In short: as §1

NCI-H322M = details: Homo sapiens, 10 μM single dose, Non-small cell lung cancer, read-out: Cell Growth inhibition Percent
In short: as §1

DU-145 = details: Homo sapiens; 10 μM single dose; DU-145, Prostate cancer; read-out: Cell Growth inhibition Percent
In short: as §1

OVCAR-3 = details: Homo sapiens; 10 μM single dose; OVCAR-3, Ovarian Cancer; read-out: Cell Growth inhibition Percent
In short: as §1

Structure (SMILES)	inhibition at 10 µM (TK-10) [%]	inhibition at 10 µM (SNB-19) [%]	inhibition at 10 µM (SK-MEL-2) [%]	inhibition at 10 µM (NCI-H322M) [%]	inhibition at 10 µM (DU-145) [%]	inhibition at 10 µM (OVCAR-3) [%]
O=C1Nc2ccccc2C1=CNc1ccc(C(=O)O)cc1 [Compound 4c, 4-{[(2-Oxoindolin-3-ylidene)methyl]amino}benzoic acid]	19.1	–	–	–	–	–
NS(=O)(=O)N/C=C1/C(=O)Nc2ccccc21 [Compound 5, 3-(sulfamidmethylene)indoline-2-one]	–	0.31	2.36	3.18	–	–
NS(=O)(=O)c1ccc(NCc2ccc(NC=C3C(=O)Nc4ccccc43)cc2)cc1 [Compound 11a, 4-{[4-({[2-Oxoindolin-3-ylidene]methyl}amino)benzyl]amino}benzenesulfonamide]	–	–	–	–	2.9	–
O=C1Nc2ccccc2C1=CNc1ccc(C(=O)C=CNc2nccs2)cc1 [Compound 13c, 3-{[(4-{3-[Thiazol-2-ylamino]acryloyl}phenyl)amino]methylene}indolin-2-one]	–	–	–	–	–	3.91
O=C(Nc1ccc(NC=C2C(=O)Nc3ccccc32)cc1)Nc1nccs1 [Compound 15c, 1-{4-[((2-Oxoindolin-3-ylidene)methyl)amino]phenyl}-3-(thiazol-2-yl)urea]	24.3	69	37.9	47.2	59.5	84.6
